This passage reports IC50 and Ki results from patent US9732094B2, “Arylquinazolines” (Merck Patent GmbH, priority 2013, dated 2017).

Like-named read-outs stand apart in the source and are kept apart here. A value given as a limit tells only on which side of the number the result lay.

Series [1] addresses DNA-PK phosphorylation at serine 2056 (Homo sapiens (Human), UniProt P78527). Briefly: DNA-PK phosphorylation at serine 2056 (cellular), bleomycin-treated HCT116 cells, ELISA. In kind it is cell-based. The settings on record: cellular DNA-PK phosphorylation at serine 2056, HCT116; read-out: IC50 pDNA-PK. The essentials: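 Chemiluminescent ELISA read-out; phospho-specific signal normalised to total DNA-PKcs. Cells (HCT116) exposed 6 h to test compound plus 10 μM bleomycin to induce double-strand breaks; DMSO control served as blank.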
A general note: In an ELISA, binding on a coated surface is turned into a signal by an enzyme label.

Series [2] concerns the target Kv11.1 (hERG) (Homo sapiens (Human), UniProt Q12809). Nature of the series: Kv11.1 (hERG) ion channel activity (patch clamp assay), HEK293 cells transfected with hERG gene. As to conditions: hERG patch clamp assay (cells without asterisk). In general terms: Block of hERG is tested as a sign of cardiac risk.
Series [3] deals with DNA-PK (Homo sapiens (Human), UniProt P78527). Nature of the series: DNA-PK assay (biochemical), flashplate 33P-ATP kinase assay. As to conditions: biochemical DNA-PK assay. The essentials: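 Reactions ran in streptavidin-coated flashplates and were halted by 200 mM EDTA, with a further 30 min at room temperature before saline washing.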

Kv11.1 (hERG), sequence (Q12809 whole entry): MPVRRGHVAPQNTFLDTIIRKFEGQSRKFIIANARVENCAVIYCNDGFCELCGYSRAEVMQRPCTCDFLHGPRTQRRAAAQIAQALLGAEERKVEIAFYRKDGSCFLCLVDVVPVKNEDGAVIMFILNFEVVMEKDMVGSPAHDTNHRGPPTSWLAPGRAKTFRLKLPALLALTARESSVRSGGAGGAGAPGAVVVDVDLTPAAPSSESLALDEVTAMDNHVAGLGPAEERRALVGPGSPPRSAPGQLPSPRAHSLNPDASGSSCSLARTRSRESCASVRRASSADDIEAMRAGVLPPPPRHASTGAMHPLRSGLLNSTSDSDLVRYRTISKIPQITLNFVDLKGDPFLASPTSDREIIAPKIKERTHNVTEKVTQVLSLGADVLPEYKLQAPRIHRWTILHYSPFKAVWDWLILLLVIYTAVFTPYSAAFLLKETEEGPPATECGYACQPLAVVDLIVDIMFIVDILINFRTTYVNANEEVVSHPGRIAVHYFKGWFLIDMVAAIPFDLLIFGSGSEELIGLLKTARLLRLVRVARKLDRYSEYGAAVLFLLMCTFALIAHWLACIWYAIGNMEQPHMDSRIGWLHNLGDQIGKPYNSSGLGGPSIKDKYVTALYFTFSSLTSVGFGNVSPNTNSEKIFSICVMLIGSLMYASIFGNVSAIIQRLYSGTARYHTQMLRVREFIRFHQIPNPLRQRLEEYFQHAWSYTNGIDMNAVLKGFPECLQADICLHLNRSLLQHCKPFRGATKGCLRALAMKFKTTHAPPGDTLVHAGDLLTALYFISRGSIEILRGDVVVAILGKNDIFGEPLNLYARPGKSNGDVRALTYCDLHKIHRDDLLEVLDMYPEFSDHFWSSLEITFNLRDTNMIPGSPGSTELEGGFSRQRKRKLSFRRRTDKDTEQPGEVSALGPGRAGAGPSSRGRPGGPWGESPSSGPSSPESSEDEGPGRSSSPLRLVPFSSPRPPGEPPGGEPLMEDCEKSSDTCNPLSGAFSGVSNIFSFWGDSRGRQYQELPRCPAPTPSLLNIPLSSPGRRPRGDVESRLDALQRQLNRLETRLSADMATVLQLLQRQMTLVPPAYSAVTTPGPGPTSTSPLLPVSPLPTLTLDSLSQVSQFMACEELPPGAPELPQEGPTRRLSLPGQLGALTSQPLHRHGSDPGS

In general, IC50 refers to the point on the concentration scale where inhibition reaches its midpoint. In general, Ki refers to a measure of affinity in units of concentration, obtained from inhibition or displacement. Regarding `OC(c1cc(-c2ncnc3cc(N4CCOCC4)ccc23)c(F)cc1F)c1nncc2ccoc12` (stereo not drawn) [Example 336, [2,4-Difluoro-5-(7-morpholin-4-yl-quinazolin-4-yl)-phenyl]furo[2,3-d}-pyridazin-7-yl-methanol], the IC50 was below 500 nM in series [1] and below 3 nM in series [3]. In series [2] (read-out: Ki [Kv1.11 hERG]), the Ki was above 25000 nM.

As to `O=c1[nH]nc(C(O)c2ccc(F)c(-c3ncnc4cc(N5CCOCC5)ccc34)c2)c2sccc12` (stereo not drawn) [Example 337, 7-[[4-Fluoro-3-(7-morpholino-quinazolin-4-yl)-phenyl]hydroxy-methyl]-5H-thieno-[2,3-d}pyridazin-4-one], the IC50 in series [1] is 500 to 5000 nM; in series [3], below 3 nM. Further, the Ki in series [2] (Ki [Kv1.11 hERG]) fell in the range of 15000 to 25000 nM.

`O=c1[nH]nc(C(O)c2ccc(F)c(-c3ncnc4cc(N5CCOCC5)ccc34)c2)c2ccsc12` (stereo not drawn) [Example 338, 4-[[4-Fluoro-3-(7-morpholino-quinazolin-4-yl)-phenyl]hydroxy-methyl]-6H-thieno[2,3-d}-pyridazin-7-one]: the IC50 is 500 to 5000 nM in series [1] and below 3 nM in series [3]. In series [2] (read-out: Ki [Kv1.11 hERG]), the Ki was above 25000 nM.

With `Cc1cc(C(O)c2cc(-c3ncnc4cc(N5CCOCC5)ccc34)c(F)cc2Cl)n(C)c(=O)c1` (stereo not drawn) [Example 339, 6-{[2-Chloro-4-fluoro-5-(7-morpholin-4-yl-quinazolin-4-yl)-phenyl]hydroxy-methyl}-1,4-dimethyl-1H-pyridin-2-one], the values for the IC50 in series [1] and in series [3] were 500 to 5000 nM and 7 to 30 nM, respectively. In series [2] (read-out: Ki [Kv1.11 hERG]), the Ki was above 25000 nM.

Turning to `Cc1cc(C(O)c2ccc(F)c(-c3ncnc4cc(N5CCOCC5)ccc34)c2)n(C)c(=O)c1` (stereo not drawn) [Example 340, 6-{[4-Fluoro-3-(7-morpholin-4-yl-quinazolin-4-yl)-phenyl]hydroxy-methyl}-1,4-dimethyl-1H-pyridin-2-one], the results for the IC50 in series [1] and in series [3] were 500 to 5000 nM and below 3 nM, respectively. In addition, the Ki in series [2] (read-out: Ki [Kv1.11 hERG]) is above 25000 nM.

As for `OC(c1cc(-c2ncnc3cc(N4CCOCC4)ccc23)c(F)cc1F)c1nncc2sccc12` (stereo not drawn) [Example 341, [2,4-Difluoro-5-(7-morpholin-4-yl-quinazolin-4-yl)-phenyl]thieno[2,3-d}-pyridazin-4-yl-methanol], the IC50 was below 500 nM in series [1] and below 3 nM in series [3]. The Ki in series [2] (Ki [Kv1.11 hERG]) lay within 15000 to 25000 nM.

Turning to `OC(c1cc(-c2ncnc3cc(N4CCOCC4)ccc23)c(F)cc1F)c1nncc2ccsc12` (stereo not drawn) [Example 342, [2,4-Difluoro-5-(7-morpholin-4-yl-quinazolin-4-yl)-phenyl]thieno[2,3-d}-pyridazin-7-yl-methanol], the IC50 in series [1] was below 500 nM; in series [3], below 3 nM. Moreover, the Ki in series [2] (read-out: Ki [Kv1.11 hERG]) was above 25000 nM.

Turning to `OC(c1ccc(F)c(-c2ncnc3cc(N4CCOCC4)ccc23)c1)c1nnc2ccccn12` (stereo not drawn) [Example 343, [4-Fluoro-3-(7-morpholin-4-yl-quinazolin-4-yl)-phenyl]-[1,2,4]-triazolo[4,3-a]pyridin-3-ylmethanol], the IC50 in series [1] was 500 to 5000 nM; in series [3], below 3 nM. This compound also yielded a Ki in series [2] (Ki [Kv1.11 hERG]) of 15000 to 25000 nM.

As to `OC(c1ccc(F)c(-c2ncnc3cc(N4CCOCC4)ccc23)c1)c1nnc2ccccn12` (stereo not drawn) [Example 344, [4-Fluoro-3-(7-morpholin-4-yl-quinazolin-4-yl)-phenyl]-[1,2,4]-triazolo[4,3-a]pyridin-3-ylmethanol], the IC50 in series [1] was 5000 to 10000 nM; in series [3], below 3 nM. Moreover, the Ki in series [2] (read-out: Ki [Kv1.11 hERG]) was above 25000 nM.

On to `OC(c1ccc(F)c(-c2ncnc3cc(N4CCOCC4)ccc23)c1)c1ncnn2cccc12` (stereo not drawn) [Example 345, [4-Fluoro-3-(7-morpholin-4-yl-quinazolin-4-yl)-phenyl]pyrrolo[2,1-f]-[1,2,4]triazin-4-yl-methanol], for which the figures for the IC50 in series [1] and in series [3] were below 500 nM and below 3 nM, respectively. Also, the Ki in series [2] (read-out: Ki [Kv1.11 hERG]) is below 10000 nM.

Take `Cn1cnc2c(C(O)c3cc(-c4ncnc5cc(N6CCOCC6)ccc45)c(F)cc3F)ncnc21` (stereo not drawn) [Example 346, [2,4-Difluoro-5-(7-morpholin-4-yl-quinazolin-4-yl)-phenyl]-(9-methyl-9H-purin-6-yl)-methanol]: the IC50 lay within 10000 to 30000 nM in series [1] and 7 to 30 nM in series [3]. The compound also yielded a Ki in series [2] (Ki [Kv1.11 hERG]) of 15000 to 25000 nM.

For `Cn1cnc2c(C(O)c3cc(-c4ncnc5cc(N6CCOCC6)ccc45)c(F)cc3F)ncnc21` (stereo not drawn) [Example 347, [2,4-Difluoro-5-(7-morpholin-4-yl-quinazolin-4-yl)-phenyl]-(9-methyl-9H-purin-6-yl)-methanol], the IC50 in series [1] fell in the range of 500 to 5000 nM; in series [3], 3 to 7 nM. Also, the Ki in series [2] (read-out: Ki [Kv1.11 hERG]) was above 25000 nM.

As to `NC(=O)C(c1cc(-c2ncnc3cc(N4CCOCC4)ccc23)c(F)cc1F)c1nccn2cccc12` (stereo not drawn) [Example 348, 2-[2,4-Difluoro-5-(7-morpholin-4-yl-quinazolin-4-yl)-phenyl]-2-pyrrolo-[1,2-a]pyrazin-1-yl-acetamide], the IC50 in series [1] was 500 to 5000 nM; in series [3] it was below 3 nM. Besides, in series [2] (Ki [Kv1.11 hERG]), the Ki fell in the range of 10000 to 15000 nM.

As for `Cc1nccnc1Cc1ccc(F)c(-c2ncnc3cc(N4CCOCC4)ccc23)c1` [Example 349, 4-[2-Fluoro-5-(3-methyl-pyrazin-2-ylmethyl)phenyl]-7-morpholin-4-yl-quinazoline], the 50% inhibitory concentration (IC50) in series [1] was below 500 nM; in series [3] it was 3 to 7 nM. For the same compound, the Ki in series [2] (read-out: Ki [Kv1.11 hERG]) is above 25000 nM.

In the case of `OC(c1cc(-c2ncnc3cc(N4CCOCC4)ccc23)c(F)cc1F)c1cccc2nncn12` (stereo not drawn) [Example 350, [2,4-Difluoro-5-(7-morpholin-4-yl-quinazolin-4-yl)-phenyl]-[1,2,4]-triazolo[4,3-a]pyridin-5-ylmethanol], the IC50 is 5000 to 10000 nM in series [1] and 3 to 7 nM in series [3]. Further, the Ki in series [2] (read-out: Ki [Kv1.11 hERG]) was above 25000 nM.

Consider `OC(c1ccc(F)c(-c2ncnc3cc(N4CCOCC4)ccc23)c1)c1nccn2cnnc12` (stereo not drawn) [Example 351, [4-Fluoro-3-(7-morpholin-4-yl-quinazolin-4-yl)-phenyl]-[1,2,4]-triazolo[4,3-a]-pyrazin-8-ylmethanol], for which the IC50 in series [1] lay within 10000 to 30000 nM; in series [3], 7 to 30 nM. The Ki in series [2] (read-out: Ki [Kv1.11 hERG]) is above 25000 nM.

With `COC(c1ccc(F)c(-c2ncnc3cc(N4CCOCC4)ccc23)c1)c1nccnc1C` (stereo not drawn) [Example 353, 4-{2-Fluoro-5-[methoxy-(3-methyl-pyrazin-2-yl)methyl]-phenyl}-7-morpholin-4-ylquinazoline], the IC50 was in the range of 10000 to 30000 nM in series [1] and 7 to 30 nM in series [3]. Besides, in series [2] (read-out: Ki [Kv1.11 hERG]), the Ki is above 25000 nM.

As to `Cc1cnc(C(O)c2ccc(F)c(-c3ncnc4cc(N5CCOCC5)ccc34)c2)c(C)n1` (stereo not drawn) [Example 354, (3,5-Dimethyl-pyrazin-2-yl)-[4-fluoro-3-(7-morpholin-4-yl-quinazolin-4-yl)-phenyl]methanol], the IC50 is below 500 nM in series [1] and below 3 nM in series [3]. In addition, in series [2] (read-out: Ki [Kv1.11 hERG]), the Ki was above 25000 nM.

On to `Cc1cnc(C(O)c2cc(-c3ncnc4cc(N5CCOCC5)ccc34)c(F)cc2F)c(C)n1` (stereo not drawn) [Example 355, [2,4-Difluoro-5-(7-morpholin-4-yl-quinazolin-4-yl)-phenyl]-(3,5-dimethyl-pyrazin-2-yl)methanol], for which the IC50 in series [1] is 500 to 5000 nM; in series [3], 3 to 7 nM. In addition, the Ki in series [2] (Ki [Kv1.11 hERG]) lay in the range of 15000 to 25000 nM.

In the case of `OC(c1ccc(F)c(-c2ncnc3cc(N4CCOCC4)ccc23)c1)c1nccn2cccc12` (stereo not drawn) [Example 356, [4-Fluoro-3-(7-morpholin-4-yl-quinazolin-4-yl)-phenyl]pyrrolo[1,2-a]-pyrazin-1-ylmethanol], the IC50 in series [1] is below 500 nM; in series [3], below 3 nM. Moreover, the Ki in series [2] (read-out: Ki [Kv1.11 hERG]) was below 10000 nM.

For the compound `COc1ccc(C(O)c2cc(-c3ncnc4cc(N5CCOCC5)ccc34)ccc2F)nn1` (stereo not drawn) [Example 357, [2-Fluoro-5-(7-morpholin-4-yl-quinazolin-4-yl)-phenyl]-(6-methoxy-pyridazin-3-yl)-methanol], the IC50 lay within 500 to 5000 nM in series [1] and 3 to 7 nM in series [3]. The Ki in series [2] (read-out: Ki [Kv1.11 hERG]) was above 25000 nM.

On to `OC(c1cc(-c2ncnc3cc(N4CCOCC4)ccc23)c(F)cc1F)c1nccn2cccc12` (stereo not drawn) [Example 358, [2,4-Difluoro-5-(7-morpholin-4-yl-quinazolin-4-yl)-phenyl]pyrrolo[1,2-a]-pyrazin-1-ylmethanol], for which the values for the IC50 in series [1] and in series [3] were below 500 nM and below 3 nM, respectively. Besides, in series [2] (Ki [Kv1.11 hERG]), the Ki was 10000 to 15000 nM.

As for `OC(c1cc(-c2ncnc3cc(N4CCOCC4)ccc23)c(F)cc1Cl)c1nccn2cccc12` (stereo not drawn) [Example 359, [2-Chloro-4-fluoro-5-(7-morpholin-4-yl-quinazolin-4-yl)-phenyl]pyrrolo[1,2-a]-pyrazin-1-ylmethanol], the IC50 in series [1] was below 500 nM; in series [3], below 3 nM. The Ki in series [2] (read-out: Ki [Kv1.11 hERG]) is below 10000 nM.

`Cn1c(C(O)c2ccc(F)c(-c3ncnc4cc(N5CCOCC5)ccc34)c2)nccc1=O` (stereo not drawn) [Example 360, 2-{[4-Fluoro-3-(7-morpholin-4-yl-quinazolin-4-yl)-phenyl]hydroxy-methyl}-3-methyl-3H-pyrimidin-4-one]: the IC50 fell in the range of 500 to 5000 nM in series [1] and 3 to 7 nM in series [3]. Also, in series [2] (read-out: Ki [Kv1.11 hERG]), the Ki was above 25000 nM.

As for `OC(c1cc(-c2ncnc3cc(N4CCOCC4)ccc23)ccc1Cl)c1nccn2cccc12` (stereo not drawn) [Example 361, (2-Chloro-5-(7-morpholin-4-yl-quinazolin-4-yl)-phenyl]pyrrolo[1,2-a]-pyrazin-1-ylmethanol], the IC50 in series [1] is 500 to 5000 nM; in series [3] it was 3 to 7 nM. Besides, in series [2] (read-out: Ki [Kv1.11 hERG]), the Ki was below 10000 nM.

On to `OC(c1cc(-c2ncnc3cc(N4CCOCC4)ccc23)ccc1Cl)c1ncnn2cccc12` (stereo not drawn) [Example 362, [2-Chloro-5-(7-morpholin-4-yl-quinazolin-4-yl)-phenyl]pyrrolo[2,1-f]-[1,2,4]triazin-4-yl-methanol], for which the IC50 in series [1] was in the range of 500 to 5000 nM; in series [3], 3 to 7 nM. The Ki in series [2] (read-out: Ki [Kv1.11 hERG]) is below 10000 nM.
